Data on 2 molecules can be found in patent publication US20170226483A1, “Methods and Vectors to Produce Vector Free Induced Pluripotent Stem Cells” (Lonza Walkersville, Inc., priority 2016, published 2017).

The test system of series [1] is hiPSC that do not express the respective suicide gene. In words: Cytotoxic effect of the suicide gene substrate on hPSCs that do not express the suicide gene (alkaline phosphatase staining). It is filed as cell-based, human. The conditions noted are these: 48 hours. The source says:
Cell were fixed and stained for alkaline phosphatase activity after 48 hr. […] Additional experiments will determine the required levels of ganciclovir and 5-FC in hiPSCs that express the suicide gene, to determine the minimum concentration required.

The test system of series [2] is K3T3 sarcoma tumors. The conditions noted are these: BALB/c mice bearing K3T3 sarcoma tumors produced by the cell lines; cited from earlier work.
Series [3] has as its system BALB/c murine K3T3 sarcoma cell lines with herpes simplex virus thymidine kinase gene. The conditions noted are these: K3T3 sarcoma cell lines carrying HSV thymidine kinase gene; cited from earlier work.

On to `Nc1nc(O)c2ncn(COC(CO)CO)c2n1` [ganciclovir, Ganciclovir], for which the “cytotoxic effect on hiPSCs” value in series [1] (ganciclovir 0.2, 2 or 20 μM) is “no cytotoxic effect”. Besides, the “effect on tumors in vivo” value in series [2] is listed as “destruction of the tumors”. In series [3], the “effect on tumor cells in vitro” value is given as “destruction of the tumor cells”.
As for `Nc1nc(=O)[nH]cc1F` [Vector 5-FC, 5-Flurocytosine], the “cytotoxic effect on hiPSCs” value in series [1] (5-FC 1, 10 and 100 μM) was “no cytotoxic effect”.
